The values below come from ChEMBL document CHEMBL1201862, “PubChem BioAssay data set” (2004).

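Interpolation was linear, between the two tested concentrations surrounding the appropriate level; five concentrations were tested over 48 hours in 96-well plates. Abbreviation: GI50, concentration required for 50% inhibition of growth.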 Calls of active or inactive are those of the source. Rule as the data show it: active = GI50 up to about 1.1 µM and inactive = higher. Bounds are passed on as bounds.

Assay in all cases: inhibition of tumour cell growth, NCI panel, 48 h
Assay [1] concerns SK-OV-3.
In assay [2] the test system is IGROV-1.
Assay [3] deals with T47D.
The test system of assay [4] is NCI/ADR-RES.
Assay [5] has as its system NCI-H460.
Assay [6] concerns HT-29.
Assay [7] deals with 786-0.
The test system of assay [8] is SN12C.
For assay [9], the system named is U-251.
Assay [10] has as its system BT-549.
Assay [11] relates to OVCAR-3.
Assay [12] has as its system CCRF-CEM.
Assay [13] deals with K562.
Assay [14] deals with OVCAR-5.
The subject of assay [15] is SR.
In assay [16] the test system is Malme-3M.
Assay [17] has as its system HCT-116.
Assay [18] relates to OVCAR-8.
For assay [19], the system named is ACHN.
Assay [20] relates to SNB-75.

For the compound `NCC1OC(n2cnc3c(N)ncnc32)CC1O` (stereo not given), the GI50 in [1], in [2], in [3], in assay [4], in [5] and in [6] was > 100 µM (inactive) each time. The GI50 in [7], in assay [8], in assay [9], in assay [10], in [11] and in assay [12] was > 100 µM (inactive) throughout. The GI50 in [13], in assay [14], in assay [15], in assay [16], in [17] and in assay [18] was > 100 µM (inactive) in each case. For the same compound, the GI50 in assay [19] and in [20] was > 100 µM (inactive) each time.
Consider `Nc1ccccc1.O=P(O)(O)c1ccccc1`, for which the GI50 in [1], in assay [2], in assay [3], in [4], in assay [5] and in assay [6] was > 100 µM (inactive) in each case. The GI50 in [7], in assay [8], in assay [9], in assay [10], in assay [11] and in [12] was > 100 µM (inactive) in each case. Moreover, the GI50 in [13], in assay [14], in [15], in [16], in assay [17] and in assay [18] was > 100 µM (inactive) throughout. Besides, the values for the GI50 in assay [19] and in [20] were > 100 µM (inactive) and 17.6 µM (inactive), respectively.
Consider `COc1ccc(/C=C/C(=N/NC(=O)N/N=C(/C=C/c2ccc(OC)cc2)C(C)C)C(C)C)cc1`, for which the GI50 was > 100 µM (inactive) in [1]; > 100 µM (inactive) in assay [2]; 25.9 µM (inactive) in assay [3]; 69.7 µM (inactive) in [4]; 48.3 µM (inactive) in assay [5]; 42.3 µM (inactive) in [6]. Moreover, the GI50 was > 100 µM (inactive) in assay [7]; > 100 µM (inactive) in [8]; 71 µM (inactive) in assay [9]; > 100 µM (inactive) in assay [10]; 41.9 µM (inactive) in [11]; 48.9 µM (inactive) in [12]. Moreover, the GI50 is 37.8 µM (inactive) in assay [13]; 99.5 µM (inactive) in [14]; > 100 µM (inactive) in assay [15]; 62.8 µM (inactive) in assay [16]; 66.1 µM (inactive) in assay [17]; 75 µM (inactive) in assay [18]. Besides, the GI50 was 73.8 µM (inactive) in assay [19] and > 100 µM (inactive) in assay [20].
As for `O=C(O)c1c2c(cc3c1CC(Cc1ccccc1)C3=O)CCC2` (stereo not given), the GI50 in assay [1] was > 100 µM (inactive); in [2] it was > 100 µM (inactive); in [3] it was > 100 µM (inactive); in assay [4], > 100 µM (inactive); in [5], 74.8 µM (inactive); in assay [6] it was 57.8 µM (inactive). The GI50 in [7] was > 100 µM (inactive); in assay [8], > 100 µM (inactive); in assay [9] it was > 100 µM (inactive); in assay [10] it was > 100 µM (inactive); in [11], > 100 µM (inactive); in assay [12], 43.7 µM (inactive). For the same compound, the GI50 is 75.2 µM (inactive) in assay [13]; > 100 µM (inactive) in assay [14]; 67.5 µM (inactive) in [15]; > 100 µM (inactive) in assay [16]; 89.9 µM (inactive) in assay [17]; > 100 µM (inactive) in [18]. For the same compound, the GI50 in assay [19] is 63 µM (inactive); in [20] it was > 100 µM (inactive).
As for `C[C@@H]1CCC2[C@@H](C)[C@H](O[C@H]3O[C@@H]4O[C@@]5(C)CCC6[C@H](C)CCC([C@H]3C)[C@]64OO5)O[C@@H]3O[C@@]4(C)CCC1[C@@]23OO4` (stereo not given in full), the GI50 was 0.452 µM (active) in assay [1]; 0.931 µM (active) in [2]; 0.0293 µM (active) in assay [3]; 0.192 µM (active) in assay [4]; 0.0675 µM (active) in [5]; 0.0491 µM (active) in assay [6]. Besides, the GI50 is 0.361 µM (active) in assay [7]; 0.186 µM (active) in assay [8]; 0.0637 µM (active) in [9]; 0.0553 µM (active) in assay [10]; 0.408 µM (active) in assay [11]; 0.0462 µM (active) in assay [12]. Besides, the GI50 in assay [13] is 0.0202 µM (active); in assay [14], 0.352 µM (active); in assay [15], 0.0318 µM (active); in [16], 0.635 µM (active); in assay [17], 0.0177 µM (active); in assay [18], 0.0929 µM (active). The GI50 in assay [19] is 0.0953 µM (active); in assay [20] it was 0.188 µM (active).
Consider `CN(C)CCCN1c2ccccc2C(C)(C)c2ccccc21` [DIMETACRINE], for which the GI50 in [1] is 13.9 µM (inactive); in [2] it was 17.9 µM (inactive); in [3] it was 17.2 µM (inactive); in [4], 17.1 µM (inactive); in [5], 13.6 µM (inactive); in assay [6] it was 11.8 µM (inactive). The GI50 in assay [7] was 14.4 µM (inactive); in assay [8], 14.4 µM (inactive); in [9], 12.4 µM (inactive); in [10], 14.9 µM (inactive); in assay [11], 14 µM (inactive); in [12], 22.4 µM (inactive). Besides, the GI50 in assay [13] was 13.3 µM (inactive); in assay [14], 14.1 µM (inactive); in assay [15], 13.1 µM (inactive); in assay [16], 14.7 µM (inactive); in [17] it was 14.8 µM (inactive); in assay [18] it was 16.1 µM (inactive). The GI50 in [19] was 15.3 µM (inactive); in assay [20] it was 10.9 µM (inactive).
Take `O/N=N/c1cnccn1`: the GI50 in assay [1] was > 269 µM (inactive); in assay [2], > 1150 µM (inactive); in [3], 933 µM (inactive); in assay [4], > 1250 µM (inactive); in assay [5], 724 µM (inactive); in [6], > 1250 µM (inactive). Further, the GI50 in [7] was > 1250 µM (inactive); in assay [8], > 1250 µM (inactive); in [9], 1080 µM (inactive); in assay [10], > 979 µM (inactive); in assay [11], > 1250 µM (inactive); in [12], 491 µM (inactive). Further, the GI50 in assay [13] was > 1190 µM (inactive); in assay [14], > 1250 µM (inactive); in assay [15] it was > 180 µM (inactive); in assay [16], > 1250 µM (inactive); in assay [17] it was > 1230 µM (inactive); in assay [18], 1200 µM (inactive). In addition, the results for the GI50 in [19] and in assay [20] were 480 µM (inactive) and > 1110 µM (inactive), respectively.
